{
  "source": "patent US20240392250A1",
  "about": "“HIGH-THROUGHPUT SELECTION AND FABRICATION OF BIOMATERIAL-ENCAPSULATED CELL MASS AND USES THEREOF” (BioArchitec Group Limited, priority 2022, published 2024)",
  "system": "HT-29 spheroids encapsulated BECM",
  "assay": "Drug response of HT-29 spheroid BECMs by CELLTITER GLO 3D cell viability assay",
  "assay_type": "cell-based",
  "details": "biomaterial-encapsulated HT-29 cancer cell spheroids; Osimertinib 0, 2, 4 and 8 μM; 72 hrs at 37° C.; n=10; FIG. 7",
  "text": "Commercially available 3D cell viability assay, CELLTITER GLO (Promega Corp.), was used to determine the cell viability of the BECMs.",
  "data": [
    {"compound": "C=CC(=O)Nc1cc(Nc2nccc(-c3cn(C)c4ccccc34)n2)c(OC)cc1N(C)CCN(C)C", "note": "[Osimertinib]", "values": [
      {"measurement": "cell viability of the BECMs (dose-response)", "value": "a typical 3D cell culture viability dose-response was obtained"}
    ]}
  ]
}
